This passage reports TGI and GI50 results from PubChem BioAssay (NCI).

Structures are written as SMILES.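 Dose response: 5 concentrations. Exposure: 48 h. Format: 96-well plates. Endpoint: linear interpolation; highest concentration if not reached. Abbreviation: GI50, concentration required for 50% inhibition of growth. TGI is the concentration that stops growth completely.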 Where only a bound is given, the exact number is not on record here.

The subject of the first assay is A498 renal. The experiment in a line: growth of human tumour cells (NCI), 48 h.
On to `Oc1c(C(Nc2cccc3cccnc23)c2ccccc2)ccc2cccnc12` (stereo not given), for which the TGI was 66.6 µM.
For the compound `CN(O)c1nc(N(C)O)nc(N2CCOCC2)n1`, the GI50 is 14.9 µM and the TGI was greater than 100 µM.
As for `COc1ccc(-c2c[nH]c(C(=O)O)c2-c2cc(OC)c(OC)c(OC)c2)cc1`, the GI50 was 1.56 µM and the TGI was found to be 6.67 µM.
As for `C#Cc1c(F)ccc2cc(O)cc(-c3ncc4c(N5CC6CCC(C5)N6)nc(OC[C@@]56CCCN5C[C@H](F)C6)nc4c3F)c12`, the GI50 was 15.7 µM and the TGI was 34.2 µM.
As for `C=C(C)C(=O)Nc1ccc(NC(C)C)cc1`, the GI50 was greater than 100 µM and the TGI is greater than 100 µM.
As to `COc1cc(CSc2nc3ccc(C)cc3c(=O)n2-c2ccccc2)cc(OC)c1OC`, the GI50 was 1.92 µM and the TGI is 9.15 µM.
On to `C=C(C)C(=O)O[C@H]1CC(=C)[C@@H]2C[C@H](O)[C@](O)(CCl)[C@@H]2[C@H]2OC(=O)C(=C)[C@@H]21`, for which the GI50 is 12.8 µM and the TGI was found to be 26.7 µM.
On to `O=C(O)CNC(=O)c1ccc(-c2ccccc2)cc1`, for which the TGI was greater than 100 µM.
Consider `CCC1C2Cc3ccc(O)cc3C1(CC)CCN2C` (stereo not given), for which the TGI is greater than 100 µM.
As for `C(#Cc1ccccc1C#Cc1cccs1)c1cccs1`, the GI50 was 22 µM and the TGI is 81.4 µM.
Compound `COC1CC(OS(=O)(=O)c2ccc([N+](=O)[O-])cc2)C(OC(=O)c2ccccc2)C(C)O1` (stereo not given) registered a TGI greater than 100 µM.
In turn, `COc1ccc(C2=CC(c3ccc4c(c3)OCO4)c3c(c4ccccc4oc3=O)O2)cc1OC` (stereo not given) returned a TGI greater than 100 µM.
Consider `C=C1C(=O)O[C@H]2[C@H]1CC/C(COC(=O)NCc1cn(C)c3ccccc13)=C\CC[C@@]1(C)O[C@@H]21`, for which the GI50 was 3.21 µM and the TGI is 12.1 µM.
As to `CC(C)[C@H](N)C(=O)N1CCC[C@H]1B(O)O`, the GI50 is greater than 100 µM and the TGI is greater than 100 µM.
Take `COc1ccc2cc(C(=O)/C=C/c3ccc(Cl)cc3Cl)ccc2c1`: the GI50 was 19.8 µM and the TGI came to 36 µM.
On to `CC(C)(C)n1cc(-c2ccnc(NCCCNS(=O)(=O)c3ccc(C(F)(F)F)cc3)c2)c(-c2cccc(O)c2)n1`, for which the GI50 was 1.54 µM and the TGI amounted to 4.2 µM.
With `O=C1Nc2ccccc2/C1=C/C(=O)c1coc2c1C(=O)c1ccccc1C2=O`, the GI50 is 45.7 µM and the TGI was greater than 100 µM.
As to `Nc1c(C(=O)c2cccc(-c3ccncc3)c2)cnn1-c1ccc(F)cc1F`, the GI50 was 4.65 µM and the TGI was greater than 25 µM.
Consider `C=C1C(=O)O[C@H]2[C@H]1CC/C(COC(=O)NCc1ccc(Cn3c(=O)sn(CCCl)c3=O)cc1)=C\CC[C@@]1(C)O[C@@H]21`, for which the GI50 is 11.5 µM and the TGI turned out to be 23.8 µM.
Take `COc1ccc2c(c1)c(=O)oc1cc(OC/C(C)=N\O)ccc12`: the GI50 was greater than 100 µM and the TGI is greater than 100 µM.

Another assay deals with ACHN renal. The experiment in a line: growth of human tumour cells (NCI), 48 h.
Take `Oc1c(C(Nc2cccc3cccnc23)c2ccccc2)ccc2cccnc12` (stereo not given): the TGI was greater than 100 µM.
`CN(O)c1nc(N(C)O)nc(N2CCOCC2)n1`: the GI50 is 1.1 µM and the TGI is greater than 100 µM.
On to `COc1ccc(-c2c[nH]c(C(=O)O)c2-c2cc(OC)c(OC)c(OC)c2)cc1`, for which the GI50 was 9.74 µM and the TGI was greater than 100 µM.
`C#Cc1c(F)ccc2cc(O)cc(-c3ncc4c(N5CC6CCC(C5)N6)nc(OC[C@@]56CCCN5C[C@H](F)C6)nc4c3F)c12`: the GI50 is greater than 39.4 µM and the TGI was greater than 53.8 µM.
For `C=C(C)C(=O)Nc1ccc(NC(C)C)cc1`, the GI50 was greater than 100 µM and the TGI was greater than 100 µM.
Consider `COc1cc(CSc2nc3ccc(C)cc3c(=O)n2-c2ccccc2)cc(OC)c1OC`, for which the GI50 was 4.78 µM and the TGI was greater than 100 µM.
`C=C(C)C(=O)O[C@H]1CC(=C)[C@@H]2C[C@H](O)[C@](O)(CCl)[C@@H]2[C@H]2OC(=O)C(=C)[C@@H]21`: the GI50 is 1.82 µM and the TGI was 3.31 µM.
`O=C(O)CNC(=O)c1ccc(-c2ccccc2)cc1`: the TGI is greater than 100 µM.
Compound `CCC1C2Cc3ccc(O)cc3C1(CC)CCN2C` (stereo not given) returned a TGI greater than 100 µM.
On to `C(#Cc1ccccc1C#Cc1cccs1)c1cccs1`, for which the GI50 was 78 µM and the TGI is greater than 100 µM.
Turning to `COC1CC(OS(=O)(=O)c2ccc([N+](=O)[O-])cc2)C(OC(=O)c2ccccc2)C(C)O1` (stereo not given), the TGI was greater than 100 µM.
Regarding `COc1ccc(C2=CC(c3ccc4c(c3)OCO4)c3c(c4ccccc4oc3=O)O2)cc1OC` (stereo not given), the TGI was greater than 100 µM.
`C=C1C(=O)O[C@H]2[C@H]1CC/C(COC(=O)NCc1cn(C)c3ccccc13)=C\CC[C@@]1(C)O[C@@H]21`: the GI50 is 0.533 µM and the TGI is 1.81 µM.
For `CC(C)[C@H](N)C(=O)N1CCC[C@H]1B(O)O` the same measures were greater than 100 µM and greater than 100 µM.
In the case of `COc1ccc2cc(C(=O)/C=C/c3ccc(Cl)cc3Cl)ccc2c1`, the GI50 is 15.1 µM and the TGI stood at 51.3 µM.
With `CC(C)(C)n1cc(-c2ccnc(NCCCNS(=O)(=O)c3ccc(C(F)(F)F)cc3)c2)c(-c2cccc(O)c2)n1`, the GI50 is 1.88 µM and the TGI amounted to 3.54 µM.
For `O=C1Nc2ccccc2/C1=C/C(=O)c1coc2c1C(=O)c1ccccc1C2=O` the same measures were greater than 100 µM and greater than 100 µM.
Regarding `Nc1c(C(=O)c2cccc(-c3ccncc3)c2)cnn1-c1ccc(F)cc1F`, the GI50 was 12 µM and the TGI was greater than 25 µM.
`C=C1C(=O)O[C@H]2[C@H]1CC/C(COC(=O)NCc1ccc(Cn3c(=O)sn(CCCl)c3=O)cc1)=C\CC[C@@]1(C)O[C@@H]21`: the GI50 is 1.54 µM and the TGI was 2.87 µM.
Consider `COc1ccc2c(c1)c(=O)oc1cc(OC/C(C)=N\O)ccc12`, for which the GI50 is 29.9 µM and the TGI was greater than 100 µM.
